# Literature values, collected in patent US7875639B2, “Compounds as cannabinoid receptor ligands and uses thereof” (priority 2006, dated 2011).
# Experiments:
# [1] = tested on: animal models; conditions: animal models of acute thermal pain, persistent pain, inflammatory pain and neuropathic pain
# [2] = at fully efficacious doses
# [3] = tested on: rodent models; conditions: rodent models of neuropathic, incisional, and both chronic and acute inflammatory pain
# [4] = tested on: rat; conditions: rat formalin model of persistent pain
# [5] = tested on: microglia; conditions: in vitro
# [6] = tested on: CB1I receptor knockout mice; conditions: CB1 receptor knockout mice
# [7] = tested on: apolipoprotein F knockout mice; conditions: low doses
# [8] = tested on: osteoclast
# [9] = tested on: mice; conditions: model for post-menopausal osteoporosis
compound,measurement,setting,value
CN1CCCCC1Cn1cc(C(=O)c2cc([N+](=O)[O-])ccc2I)c2ccccc21 (stereo not shown) [AM-1241],analgesic efficacy,[1],exhibits robust analgesic efficacy
same,typical CB1 receptor-mediated CNS side effects,[2],devoid of typical CB1 receptor-medicated CNS side effects
COc1ccc2c(c1)c(CCN1CCOCC1)c(C)n2C(=O)c1cccc(Cl)c1Cl [GW405833],efficacy in pain models,[3],is efficacious
same,typical CB1 receptor-mediated CNS side effects,[2],devoid of typical CB1 receptor-medicated CNS side effects
CCCCCCC(C)(C)c1cc(OC)c([C@@H]2C=C(CO)[C@@H]3C[C@H]2C3(C)C)c(OC)c1 [HU-308],antinociceptive response,[4],elicits an antinociceptive response
CCCC(C)(C)c1ccc2c(c1)OC(C)(C)[C@@H]1CC=C(C)C[C@@H]21 [JWH-133],β-amyloid-induced microglial activation and neurotoxicity,[5],abrogated β-amyloid-induced microglial activation and neurotoxicity
(−)-Δ^9-Tetrahydrocannabinol [Δ^9-THC],analgesic efficacy,[6],retains some analgesic efficacy
same,progression of atherosclerotic lesions,[7],slowed the progression of atherosclerotic lesions
SR144528,osteoclast activity,[8],inhibit osteoclast activity
same,ovariectomy-induced bone loss,[9],reverse ovariectomy-induced bone loss
